This note sets out measurements from patent publication US7615643B2 (SmithKline Beecham Corporation, priority 2006, dated 2009).

This experiment has as its target T1, PLK1 (Homo sapiens, UniProt P53350).
T1 construct: PLK kinase domain (amino acids 21-346 preceded by MKKGHHHHHHD); made in house; host or cells: baculovirus infected T. ni cells
The experiment in a line: Assay for inhibition of PLK1 (SPA kinase assay). To be noted: 1 μM ATP, 2 nM PLK1 kinase domain, read-out: PLK1 pIC50 (converted). In kind it is biochemical. Put shortly: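 His-tagged PLK1 kinase domain (aa 21-346, baculovirus/T. ni) at 2 nM with 1 μM ATP plus 33P-γ-ATP and 1 μM biotinylated peptide in 25 mM HEPES pH 7.2, 15 mM MgCl2, 1 mM DTT, 0.15 mg/mL BSA; 1-1.5 h at 22° C. Streptavidin SPA capture read; percent inhibition versus DMSO, EDTA background.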

T1 sequence (P53350 21-346): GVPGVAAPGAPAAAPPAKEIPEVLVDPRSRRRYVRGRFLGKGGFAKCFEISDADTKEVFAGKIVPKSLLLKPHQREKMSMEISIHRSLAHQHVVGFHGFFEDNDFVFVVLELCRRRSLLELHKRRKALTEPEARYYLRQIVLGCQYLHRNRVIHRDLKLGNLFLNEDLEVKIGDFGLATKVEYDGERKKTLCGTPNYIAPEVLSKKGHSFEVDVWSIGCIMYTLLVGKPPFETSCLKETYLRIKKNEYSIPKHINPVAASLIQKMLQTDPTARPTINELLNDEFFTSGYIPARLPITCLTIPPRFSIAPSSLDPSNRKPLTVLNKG

Consider `C[C@@H](Oc1cc(-n2cnc3cc(-c4cnn(C)c4)ccc32)sc1C(N)=O)c1cccc(OCC2CCN(C)CC2)c1Cl` [Example 45, 3-{[(1R)-1-(2-Chloro--3-{[(1-methyl-4-piperidinyl)methyl]oxy}phenyl)ethyl]oxy}-5-[5-(1-methyl-1H-pyrazol-4-yl)-1H-benzimidazol-1-yl]-2-thiopnenecarboxamide], for which the IC50 is less than 100 nM.
With `Cc1cc(-c2ccc3c(c2)ncn3-c2cc(O[C@H](C)c3cccc(OC4CCNCC4)c3Cl)c(C(N)=O)s2)ccn1` [Example 49, 3-({(1R)-1-[2-Chloro-3-(4-piperidinyloxy)phenyl]ethyl}oxy)-5-[5-(2-methyl-4-pyridinyl)-1H-benzimidazol-1-yl]-2-thiophenecarboxamide] the figure was less than 100 nM.
On to `CC(Oc1cc(-n2cnc3cc(-c4cnn(C)c4)ccc32)sc1C(N)=O)c1cccc(OC2CCNCC2)c1` (racemic) [Example 73, (+/−)-5-[5-(1-Methyl-1H-pyrazol-4-yl)-1H-benzimidazol-1-yl]-3-({1-[3-(4-piperidinyloxy)phenyl]ethyl}oxy)-2-thiophenecarboxamide], for which the IC50 is less than 100 nM.
